{"source": "patent US9096829B2", "about": "“Human mast cell line and uses thereof” (UNIVERSITY OF SOUTH FLORIDA, priority 2009, dated 2015)", "assay_type_in_all_cases": "cell-based, human", "key": {"USF-MC1 cells [1]": {"tested_on": "USF-MC1 cells", "assay": "Beta-hexosaminidase (histamine) release from USF-MC1 mast cells", "protocol": "(§1) FIGS. 3A-D show graphs of histamine (beta hexosaminidase) release from USF-MC1 cells compared to LAD2 cells after one hour (FIGS. 3A and 3B, respectively), and after six hours (FIGS. 3D and 3C, respectively). USF-MC1 cells (2×10^6 per well) were coated with biotinylated human myeloma IgE for 18 hours. Cells were then washed and challenged with streptavidin (100 ng/ml), ionomycin (5 μM), ANP (1 μM), ANP+KP2, ANP+Isatin. After 30 minutes, supernatants and cell lysates were developed with […] and optical density (OD) was read at 405 nm. Percent release is expressed as a ratio of supernatant over total (supernatant+lysate). […] In addition, ANP-induced histamine release is attenuated by an NPRA receptor antagonist (isatin).\nIn order to activate mast cells via the FceR1 receptor, cells were cultured for 18 hours with biotinylated human myeloma IgE (100 ng/ml)(Sigma). Cells were then challenged with streptavidin (100 ng/ml)(Sigma), ionomycin (5 μM), or atrial natriuretic peptide (ANP) (100 ng/ml). After 30 minutes, supernatants and cell pellets were harvested. Substrate solution (p-Nitrophenyl-N-acetyl-B-D-glucosaminide Calbiochem, 0.13% in sodium citric solution) was added to either the cell supernatants or pellets and incubated for 1.5 hr. 0.4M glycine solution was then added to stop the reaction. The optical density (OD) was read at 405 nm. Percent release was expressed as a ratio of supernatant over total (supernatant+lysate). Percent release of beta-hexosadminidase by SV40 LT-transfected USF-MC1 cells and non-transfected USF-MC1 cells is shown in FIG. 5C.\nUSF-MC1 cells (2×10^6 per well) were coated with biotinylated human myeloma IgE for 18 hours. Cells were then washed and challenged with streptavidin (100 ng/ml), ionomycin (5 μM), ANP (1 μM), ANP+KP2, ANP+Isatin. After 30 minutes, supernatants and cell lysates were developed with […] and optical density (OD) was read at 405 nm. Percent release is expressed as a ratio of supernatant over total (supernatant+lysate). […]"}, "USF-MC1 cells [2]": {"tested_on": "USF-MC1 cells", "assay": "Leukotriene C4 release (ELISA) from USF-MC1 mast cells", "settings": "ANP challenge plus isatin", "protocol": "(§2) TNF-a (R&G Systems), IL-17 (eBioscience), and Leukotrine C4 (Cayman Chemical) protein concentrations in mast cell supernatants were determined using ELISA kits from each respective manufacturer. Each ELISA was performed according to the manufacturer's instructions."}, "LAD2 cells [3]": {"tested_on": "LAD2 cells", "assay": "Leukotriene C4 release (ELISA) from LAD2 mast cells", "settings": "ANP challenge plus isatin", "protocol": "as §2"}, "LAD2 cells [4]": {"tested_on": "LAD2 cells", "assay": "Beta-hexosaminidase (histamine) release from LAD2 mast cells", "settings": "ANP challenge plus isatin", "protocol": "as §1\nIn order to activate mast cells via the FceR1 receptor, cells were cultured for 18 hours with biotinylated human myeloma IgE (100 ng/ml)(Sigma). Cells were then challenged with streptavidin (100 ng/ml)(Sigma), ionomycin (5 μM), or atrial natriuretic peptide (ANP) (100 ng/ml). After 30 minutes, supernatants and cell pellets were harvested. […] The optical density (OD) was read at 405 nm. Percent release was expressed as a ratio of supernatant over total (supernatant+lysate). […]"}}}
{"smiles": "C[C@H](CCC(=O)O)C[C@H](C)C[C@H](C)C(=O)/C=C(\\O)[C@H](C)C[C@H](C)C/C=C/[C@@H](C)[C@@H](O)[C@@H](C)[C@@H](O)C[C@@H]1CC[C@@](C)([C@H]2CC[C@@](C)([C@@H](C)O)O2)O1", "note": "[ionomycin]", "values": [{"measurement": "histamine (beta hexosaminidase) release after challenge", "setting": "USF-MC1 cells [1]; ionomycin 5 μM or ANP 1 μM, 30 minutes", "value": "releases histamine within minutes"}]}
{"smiles": "O=C1Nc2ccccc2C1=O", "note": "[isatin]", "values": [{"measurement": "effect on ANP-induced histamine release", "setting": "USF-MC1 cells [1]; ANP 1 μM + isatin, 30 minutes", "value": "attenuated"}, {"measurement": "effect on ANP-induced release of B-Hex", "setting": "USF-MC1 cells [1]; ANP challenge plus isatin", "value": "reduced to baseline"}, {"measurement": "effect on ANP-induced release of LTC4", "setting": "USF-MC1 cells [2]", "value": "reduced to baseline"}, {"measurement": "effect on ANP-induced release of LTC4", "setting": "LAD2 cells [3]", "value": "reduced to baseline"}, {"measurement": "effect on ANP-induced release of B-Hex", "setting": "LAD2 cells [4]", "value": "reduced to baseline"}]}
